Activity calls are given as the source filed them. The calls are words filed in the database; no cut-off is given here.
How the values were obtained:
Mitochondrial membrane [1] = test: Induction of mitochondrial membrane depolarization in human MCF7 cells assessed as increase in mitochondrial fission by measuring appearance of circular mitochondria by confocal microscopic analysis; assay type: cell membranes
Mitochondrial membrane [2] = test: Disruption of mitochondrial membrane integrity in human A549 cells assessed as mitochondrial swelling by TEM analysis; assay type: cell membranes
Chorioallantoic membrane = test: Anti-angiogenesis activity in chicken embryo chorioallantoic membrane assessed as reduction in blood vessel formation by imaging analysis; assay type: functional, tissue-based; conditions: Gallus gallus, TDE = time-dependent effect
A549 [3] = test: Induction of DNA damage in human A549 cells assessed as gammaH2AX positive cells at IC50 incubated for 48 hrs by PI staining based flow cytometric analysis (reference value: 4.90 +/- 0.50%); assay type: functional
A549 [4] = test: Induction of cell cycle arrest in human A549 cells assessed as accumulation of cells at G2 phase at IC50 incubated for 24 hrs by PI staining based flow cytometric analysis (reference value: 23.45 +/- 1.62%); assay type: functional
Mitochondrial membrane [5] = test: Disruption of mitochondrial membrane integrity in human A549 cells assessed as presence of large mitochondria by TEM analysis; assay type: cell membranes
MCF7 [6] = test: Induction of DNA damage in human MCF7 cells assessed as gammaH2AX positive cells at IC50 incubated for 48 hrs by PI staining based flow cytometric analysis (reference value: 7.58 +/- 1.23%); assay type: functional
A549 [7] = test: Inhibition of colony formation in human A549 cells assessed as reduction in clonogenic capacity incubated for 24 hrs by crystal violet staining based analysis; assay type: functional, cell-based
A549 [8] = test: Induction of apoptosis in human A549 cells assessed as apoptotic rate at IC50 incubated for 48 hrs by Annexin-V and 7-AAD staining based flow cytometric analysis (reference value: 6.56 +/- 1.17%); assay type: functional
Mitochondrial membrane [9] = test: Induction of mitochondrial membrane depolarization in human A549 cells assessed as increase in mitochondrial fission by measuring appearance of spherical mitochondria by confocal microscopic analysis; assay type: cell membranes
A549 [10] = test: Inhibition of cell adhesion in human A549 cells assessed as reduction in cell aggregates formation at IC50 incubated for 48 hrs by inverted phase contrast microscopic analysis; assay type: functional, cell-based
MCF7 [11] = test: Antitumor activity against human MCF7 cells xenografted in chicken embryo chorioallantoic membrane assessed as necrosis at 1.5 to 4.5 uM by H and E staining based analysis; assay type: functional, cell-based; conditions: dose 1.5-4.5 µM
MCF7 [12] = test: Antitumor activity against human MCF7 cells xenografted in chicken embryo chorioallantoic membrane assessed as reduction in tumor size; assay type: functional, cell-based; conditions: dose 1.5-4.5 µM
Mitochondrial membrane [13] = test: Disruption of mitochondrial membrane integrity in human MCF7 cells assessed as disruption of normal mitochondrial distribution by TEM analysis; assay type: cell membranes
Mitochondrial membrane [14] = test: Disruption of mitochondrial membrane integrity in human MCF7 cells assessed as organization of mtDNA nucleoids within cells by TEM analysis; assay type: cell membranes
MCF7 [15] = test: Inhibition of colony formation in human MCF7 cells assessed as reduction in clonogenic capacity incubated for 24 hrs by crystal violet staining based analysis; assay type: functional, cell-based
Mitochondrial membrane [16] = test: Disruption of mitochondrial membrane potential in human A549 cells assessed as translocation of cytochrome c to cytoplasm at IC50 incubated for 48 hrs by confocal microscopic analysis; assay type: cell membranes
Mitochondrial membrane [17] = test: Disruption of mitochondrial membrane integrity in human A549 cells assessed as change in mitochondrial size by TEM analysis; assay type: cell membranes
Mitochondrial membrane [18] = test: Disruption of mitochondrial membrane integrity in human MCF7 cells assessed as mitochondrial swelling by TEM analysis; assay type: cell membranes
Mitochondrial membrane [19] = test: Disruption of mitochondrial membrane integrity in human A549 cells assessed as organization of mtDNA nucleoids within cells by TEM analysis; assay type: cell membranes
A549 [20] = test: Cytotoxicity against human A549 cells assessed as inhibition of cell proliferation incubated for 72 hrs by MTT assay; assay type: functional, cell-based; conditions: A549, 72 h
MCF7 [21] = test: Induction of apoptosis in human MCF7 cells assessed as increase in apoptotic cells incubated for 24 hrs by Annexin-V and 7-AAD staining based flow cytometric analysis (reference value: 5.70 +/- 1.56%); assay type: functional
Mitochondrial membrane [22] = test: Disruption of mitochondrial membrane integrity in human MCF7 cells assessed as presence of large mitochondria by TEM analysis; assay type: cell membranes
A549 [23] = test: Antitumor activity against human A549 cells xenografted in chicken embryo chorioallantoic membrane assessed as necrosis at 1.5 to 4.5 uM by H and E staining based analysis; assay type: functional, cell-based; conditions: dose 1.5-4.5 µM
MCF7 [24] = test: Inhibition of cell adhesion in human MCF7 cells assessed as reduction in cell aggregates formation at IC50 incubated for 48 hrs by inverted phase contrast microscopic analysis; assay type: functional, cell-based
Mitochondrial membrane [25] = test: Disruption of mitochondrial membrane integrity in human MCF7 cells assessed as absence of well-developed cristae by TEM analysis; assay type: cell membranes
Mitochondrial membrane [26] = test: Disruption of mitochondrial membrane integrity in human MCF7 cells assessed as change in mitochondrial internal organization by TEM analysis; assay type: cell membranes
Mitochondrial membrane [27] = test: Disruption of mitochondrial membrane potential in human MCF7 cells assessed as translocation of cytochrome c to cytoplasm at IC50 incubated for 48 hrs by confocal microscopic analysis; assay type: cell membranes
A549 [28] = test: Induction of cell cycle arrest in human A549 cells assessed as accumulation of cells at S phase at IC50 incubated for 48 hrs by PI staining based flow cytometric analysis (reference value: 17.825 +/- 3.70%); assay type: functional
A549 [29] = test: Induction of cell cycle arrest in human A549 cells assessed as accumulation of cells at S phase at IC50 incubated for 24 hrs by PI staining based flow cytometric analysis (reference value: 39.41 +/- 2.54%); assay type: functional
A549 [30] = test: Antitumor activity against human A549 cells xenografted in chicken embryo chorioallantoic membrane assessed as change in nuclear morphology at 1.5 to 4.5 uM by H and E staining based analysis; assay type: functional, cell-based; conditions: dose 1.5-4.5 µM
A549 [31] = test: Induction of cell cycle arrest in human A549 cells assessed as accumulation of cells at G1 phase at IC50 incubated for 24 hrs by PI staining based flow cytometric analysis (reference value: 37.40 +/- 2.40%); assay type: functional
Mitochondrial membrane [32] = test: Disruption of mitochondrial membrane integrity in human MCF7 cells assessed as change in mitochondrial size by TEM analysis; assay type: cell membranes
Mitochondrial membrane [33] = test: Disruption of mitochondrial membrane integrity in human A549 cells assessed as disruption of normal mitochondrial distribution by TEM analysis; assay type: cell membranes
MCF7 [34] = test: Induction of apoptosis in human MCF7 cells assessed as increase in apoptotic cells incubated for 48 hrs by Annexin-V and 7-AAD staining based flow cytometric analysis (reference value: 7.53 +/- 1.16%); assay type: functional
Mitochondrial membrane [35] = test: Disruption of mitochondrial membrane integrity in human A549 cells assessed as presence of bloated mitochondria by TEM analysis; assay type: cell membranes
MCF7 [36] = test: Induction of cell cycle arrest in human MCF7 cells assessed as accumulation of cells at G2 phase at IC50 incubated for 24 hrs by PI staining based flow cytometric analysis relative to control; assay type: functional
Mitochondrial membrane [37] = test: Induction of mitochondrial membrane depolarization in human MCF7 cells assessed as increase in mitochondrial fission by measuring appearance of spherical mitochondria by confocal microscopic analysis; assay type: cell membranes
Mitochondrial membrane [38] = test: Induction of mitochondrial membrane depolarization in human MCF7 cells assessed as increase in mitochondrial fission by measuring appearance of shortened mitochondria by confocal microscopic analysis; assay type: cell membranes
Mitochondrial membrane [39] = test: Disruption of mitochondrial membrane integrity in human MCF7 cells assessed as presence of bloated mitochondria by TEM analysis; assay type: cell membranes

For `CC(=S)NC1CCc2[nH]c3ccc(Br)cc3c2C1` (stereo not given), the Activity (Mitochondrial membrane [1]) was “Active”, the Activity (Mitochondrial membrane [2]) was “Active” and the Activity (Chorioallantoic membrane) was “Tde”. For the same molecule, the Activity (A549 [3]) was 11.98%, the Activity (A549 [4]) was 14.3% and the Activity (Mitochondrial membrane [5]) was “Active”. For the same molecule, the Activity (MCF7 [6]) was 16.78%, the inhibition (A549 [7]) was “Dose-Dependent Effect” and the Activity (A549 [8]) was 42.87%. The Activity (Mitochondrial membrane [9]) was “Active”, the inhibition (A549 [10]) was “Active” and the Activity (MCF7 [11]) was “Active”. The Activity (MCF7 [12]) was “Dose-Dependent Effect”, the Activity (Mitochondrial membrane [13]) was “Active” and the Activity (Mitochondrial membrane [14]) was “Active”. For the same molecule, the inhibition (MCF7 [15]) was “Dose-Dependent Effect”, the Activity (Mitochondrial membrane [16]) was “Active” and the Activity (Mitochondrial membrane [17]) was “Active”. The Activity (Mitochondrial membrane [18]) was “Active”, the Activity (Mitochondrial membrane [19]) was “Active” and the IC50 (A549 [20]) was 4.54 µM. The Activity (MCF7 [21]) was 10.8%, the Activity (Mitochondrial membrane [22]) was “Active” and the Activity (A549 [23]) was “Active”. For the same molecule, the inhibition (MCF7 [24]) was “Active”, the Activity (Mitochondrial membrane [25]) was “Active” and the Activity (Mitochondrial membrane [26]) was “Active”. The Activity (Mitochondrial membrane [27]) was “Active”, the Activity (A549 [28]) was 30.8% and the Activity (A549 [29]) was 27.15%. The Activity (A549 [30]) was “Active”, the Activity (A549 [31]) was 31.6% and the Activity (Mitochondrial membrane [32]) was “Active”. The Activity (Mitochondrial membrane [33]) was “Active”, the Activity (MCF7 [34]) was 47.28% and the Activity (Mitochondrial membrane [35]) was “Active”. The Activity (MCF7 [36]) was 25.95%, the Activity (Mitochondrial membrane [37]) was “Active” and the Activity (Mitochondrial membrane [38]) was “Active”. For the same molecule, the Activity (Mitochondrial membrane [39]) was “Active”.

Source: ChEMBL document CHEMBL6071148, “Synthesis and biological evaluation of novel 3,6- amide and thioamide substituted- 2,3,4,9-tetrahydro-1H-carbazoles for anti-cancer activity” (Eur J Med Chem, 2024)
